{"source": "patent US7894880B2", "about": "“Measurement of renal extraction fraction using contrast enhanced computed tomography” (The Board of Trustees of the Leland Stanford Junior …, priority 2003, dated 2011)", "experiment": "Renal extraction fraction by contrast enhanced CT after iohexol injection (retrospective study)", "assay_type": "in vivo, adult patients", "source_text": "[formula] where CA is the concentration of a filtration marker in the systemic arterial blood entering the kidney, and CV is the corresponding concentration in the renal venous blood. Standard radiographic contrast agents, including iothalamate and iohexol, may be used as filtration markers since they are freely filtered by the kidney, and neither secreted nor reabsorbed. Assuming linear increase in CT number with concentration of contrast agent, CA will be proportional to the increase in CT number of the systemic arterial blood following contrast injection, or CTA-CTPRE, where CTPRE and CTA are the pre- and post- contrast CT numbers of the systemic arterial blood. Similarly, CTV will be proportional to CTV-CTPRE, where CTV is the post-contrast CT number of a renal vein. Substituting into equation [1] yields: […]\nIn a retrospective study, CT scans of 10 adult patients (mean age 58.1 years, 7 female) having no known renal disease, and one patient with unilateral renal obstruction were studied. All patients had precontrast scans followed by injection of 120 ml. of iohexol (Omnipaque 350, Amersham Health, Princeton, N.J.) at 2 ml/sec., and enhanced scans through the kidney vasculature, delayed for 3 to 5 minutes after the end of the contrast injection. CT section thickness varied from 2.5 mm to 5 mm. Pre- and post-contrast delayed images were evaluated using ROI measurements taken within the abdominal aorta in the region of the renal vessels, and within right and left renal veins. Multiple measurements, one from each of several axial scans, within each vessel were obtained, varying from 2 to 4 measurements for each renal vein, and 4-8 measurements for the abdominal aorta. Mean CT number values were subsequently computed for each vessel. EF values for the right and left kidneys in each subject were then computed for each patient using equation [2] above. Propagation of error was used to estimate the standard deviation in the computed EF values, as expressed in:\n[formula] where σ^2CTA, σ^2CTV, and σ^2CTPRE are the variances in the mean values for each region.", "key": {"[1]": {"conditions": "10 patients with no history of renal disease, weighted by the inverse of the variance"}, "[2]": {"conditions": "individual normal subjects (no known renal disease), one line per patient, 120 ml iohexol at 2 ml/sec, scans delayed 3 to 5 minutes after injection"}, "[3]": {"conditions": "patient with unilateral renal obstruction"}}, "note": "Where “and” joins values, the source holds several entries; their conditions need not be identical. Equal values may be shown once."}
{"smiles": "CC(=O)N(CC(O)CO)c1c(I)c(C(=O)NCC(O)CO)c(I)c(C(=O)NCC(O)CO)c1I", "note": "(stereo not drawn) [iohexol]", "values": [{"measurement": "Left renal EF, weighted mean ± SD", "setting": "[1]", "result": "12.3±1.3", "unit": "%"}, {"measurement": "Right renal EF, weighted mean ± SD", "setting": "[1]", "result": "12.6±1.0", "unit": "%"}, {"measurement": "Left Renal EF (calculated extraction fraction ± s.d.)", "setting": "[2]", "result": "7.7 ± 6.3% and 9.1 ± 1.5% and 7.8 ± 2.6% and 21.1 ± 1.7% and 22.2 ± 3.0% and 8.3 ± 1.9% and 17.7 ± 4.7% and 8 ± 3.2% and 7.7 ± 3.1% and 7.7 ± 5.3%"}, {"measurement": "Right Renal EF (calculated extraction fraction ± s.d.)", "setting": "[2]", "result": "8.3 ± 9.6% and 16.2 ± 11.6% and 7.6 ± 1.6% and 16.8 ± 3.4% and 16.7 ± 2.2% and 8 ± 5.4% and 16.2 ± 4.6% and 10.6 ± 4.5% and 18.8 ± 2.8% and 13.3 ± 3.1%"}, {"measurement": "EF in the obstructed left kidney", "setting": "[3]", "result": "9.7±4.0", "unit": "%"}, {"measurement": "EF in the unobstructed right kidney", "setting": "[3]", "result": "29.6±5.6", "unit": "%"}]}
